In one assay the test system is GOF Hec50co cells. Kind of assay: BIBFs effect on NPs uptake using flow cytometry. Format: cell-based, human. Particulars: 1 μM BIBFs, 6 h, serum containing media. The procedure:
(§1) BIBFs effect on NPs uptake using flow cytometry. The effect of BIBFs on the uptake of different RHDp against Hec50co cells and GOF Hec50co cells was tested. Both cell lines were plated at a seeding density of 10^5 cell/well in 12 well plate, and then the experiment was carried out as mentioned in section [00125]) with two exceptions: a) RHDp uptake was evaluated in the presence or absence of 1 μM BIBFs, b) the experiment was carried out in serum containing media to mimic the in vivo conditions.
A general note: In flow cytometry, cells or beads pass a laser one at a time.

For assay [1], the system named is Hec50co cells. The assay can be described thus: BIBFs effect on NPs uptake using flow cytometry. The format is cell-based, human. The following applies: 1 μM BIBFs, 6 h, serum containing media. How it is done: as §1
Assay [2] has as its system Hec50co cells. Particulars: 5 mg/kg each IV on days 18, 25, 32.
Method: In vivo efficacy studies using mouse xenograft model of LOF p53 USC. Female athymic NCI-nu/nu mice (Charles River, Wilmington, Mass.) at the age of 6-8 weeks were challenged subcutaneously with 2×10^6 Hec50co cells in the right flank after isoflurane anesthesia. […] Mice were 5 per group, except the group that received the combination therapy were 7. Treatments were administered TV through retro-orbital injections in the venous sinus on days 18, 25, and 32. The tumor diameters and height were measured using digital caliper. The tumor volumes were calculated from the following formula:
Where D1 is the first tumor diameter (mm), D2 is the second tumor diameter (mm), and H is the tumor height.
Mice weights were monitored during the experiment and mice were euthanized once the tumor diameter exceeded 2 cm or tumor height exceeded 1 cm. Sample sizes for this experiment were estimated based on preliminary data in order to have 80% power to detect significant differences between groups. All animal experiments were not blinded, and were carried out in accordance with guidelines and regulations approved by the University of Iowa Institutional Animal Care and Use Committee.

These results are taken from patent US20220110882A1, “SYNTHETICALLY LETHAL NANOPARTICLES FOR TREATMENT OF CANCERS” (UNIVERSITY OF IOWA RESEARCH FOUNDATION, priority 2017, published 2022).

With `COC(=O)c1ccc2c(c1)NC(=O)/C2=C(\Nc1ccc(N(C)C(=O)CN2CCN(C)CC2)cc1)c1ccccc1` [BIBFs, BIBF-1120], the “increase in fluorescence intensity on addition to RHDp (75/T)” value in the assay on GOF Hec50co cells and in the assay on Hec50co cells [1] was 1.5 fold in each case. Regarding `CC(=O)O[C@H]1C(=O)[C@@]2(C)[C@H]([C@H](OC(=O)c3ccccc3)[C@]3(O)C[C@H](OC(=O)[C@H](O)[C@@H](NC(=O)c4ccccc4)c4ccccc4)C(C)=C1C3(C)C)[C@]1(OC(C)=O)CO[C@@H]1C[C@@H]2O` [PTXs, paclitaxel], in the assay with Hec50co cells [2], the median survival is listed as 41 days.
